Data as given in US11077167B2, “Agent for promoting skeletal muscle injury repair” (Osaka University, priority 2017, dated 2021).

Tested on: angiogenesis
Assay: Angiogenic activity
Details: truncated peptides compared with SVVYGLR; confirmed by the present inventors, no method given

| Substance | angiogenic activity |
| --- | --- |
| SVVYGL | retain the angiogenic activity of SVVYGLR |
| VVYGLR | retain the angiogenic activity of SVVYGLR |
